Source: article PMC5988308, “Rhodanine derivatives as potent anti-HIV and anti-HSV microbicides” (PLoS ONE, 2018)
Where two headings read alike, the source gives them in different places.

Legend:
HIV-1 NL 4.3 WT = experiment: Antiviral activity on human CD4+ T lymphocytes, NL4.3 WT; type: cell-based; conditions: Human immunodeficiency virus 1; human CD4+ T lymphocytes; read-out: NL 4.3 WT EC50
Protocol: (§1) The antiviral activity and cytotoxicity of compounds 2, 9e and 9f was tested also on freshly purified human CD4^+ T lymphocytes obtained from healthy blood donors (informed consent available) as described previously on HIV laboratory strain NL4.3 and AD8 [33, 34].

HIV-1 AD8 WT = experiment: Antiviral activity on human CD4+ T lymphocytes, AD8 WT; type: cell-based; conditions: Human immunodeficiency virus 1; human CD4+ T lymphocytes; read-out: AD8 WT EC50
Protocol: as §1

HSV-1 = HSV-1 plaque reduction assay on Vero cells; type: cell-based; conditions: read-out: HSV-1 EC50, Vero cells
Protocol: Clinical isolates of HSV-1 and HSV-2 were kindly provided by Prof. M. Pistello, University of Pisa, Italy. HSV-1 and HSV-2 strains were propagated and titrated by plaque assay on Vero cells. A HSV-2 strain with phenotypic resistance to acyclovir was generated by serial passage in the presence of increasing concentrations of acyclovir, as previously described.
The effect of the rhodanine derivatives on HSV infection was evaluated by plaque reduction assay. Vero cells were pre-plated 24 h in advance in 24-well plates at a density of […]. Increasing concentrations of compounds were mixed with HSV-2 (MOI 0.001 pfu/cell) or HSV-2 acyclovir resistant (MOI 0.001) or HSV-1 (MOI 0.0005) or and incubated for 1 hour at 37°C. The mixtures were subsequently added to the cells, which were then incubated at 37°C for 2 h. The virus inoculum was then removed and the cells washed and overlaid with a medium containing 1.2% methylcellulose (Sigma). After further incubation at 37°C for 24 h (HSV-2 and HSV-2 R Acy) or 48 h (HSV-1), cells were fixed and stained with 0.1% crystal violet in 20% ethanol and viral plaques counted. The effective concentration producing 50% reduction (EC50) and 90% reduction (EC90) in plaque formation was determined using Prism software by comparing drug-treated with wells treated with medium and solvent. The selectivity index (SI) was calculated by dividing the CC50 by the EC50 value.
All results are presented as the mean values from three independent experiments. The EC50 values for inhibition curves were calculated by regression analysis using the software GraphPad Prism (GraphPad Software, San Diego, California, U.S.A.) by fitting a variable slope-sigmoidal dose–response curve. Acyclovir was purchased from Sigma Aldrich (Milan, Italy).

[1] = Storage stability and rheological characterization of gel; type: physicochemical; conditions: 50 μM, 25°C in the dark
Protocol: All the semi-solid formulations were prepared adding at the pre-gel solution reported above hydroxyethyl cellulose (HEC) (1.8% w/v). In all samples, 0.2% v/v propionic acid was added to aqueous solution in order to preserve form bacteria and mold contamination. HEC was dispersed in the pre-gel solution at 25°C under magnetic stirring, overnight. Gel containing compound 2 was stored at 25°C in the dark. At predetermined data points, the formulations were visually inspected to evidence aggregate formations and the pH was measured. Rheological evaluations were performed using a rotational viscometer (Bohlin Model Visco 88, Bohlin Instruments, UK). Appropriate measuring spindles (C14 DIN) were used during viscosity measurements. Samples were loaded into the cup and allowed to equilibrate for 10 min at desired temperature (25 ± 0.5°C) and apparent viscosity (mPa s) was determined using a shear rate of 552 s^-1 over a 1 month period.

[2] = test system: recombinant HIV-1 integrase Q148H, G140S; experiment: Antiviral activity on human CD4+ T lymphocytes, integrase mutant Q148H, G140S; type: cell-based; conditions: Human immunodeficiency virus 1, read-out: Q148H, G140S EC50
[3] = Cytotoxicity on human CD4+ T lymphocytes; type: cell-based
Protocol: as §1

human CD4+ T lymphocytes = experiment: Cytotoxicity on human CD4+ T lymphocytes; type: cell-based
Protocol: as §1

NL4.3 HIV strain = experiment: Antiviral activity in microbicide gel formulation, transwell experiment, TZM-bl cells; type: cell-based, HIV-1; conditions: Human immunodeficiency virus 1, gel at 50%
Protocol: All the semi-solid formulations were prepared adding at the pre-gel solution reported above hydroxyethyl cellulose (HEC) (1.8% w/v). In all samples, 0.2% v/v propionic acid was added to aqueous solution in order to preserve form bacteria and mold contamination. HEC was dispersed in the pre-gel solution at 25°C under magnetic stirring, overnight.
Antiviral activity of compound 2 on NL4.3 HIV strain was evaluated also in a gel formulation. To reproduce more physiological conditions, TZM-bl cells were seeded into transwells and the gel was applied onto the cell monolayer at 50% fixed concentration with serial drug dilutions as previously described. Briefly, 4x10^4 TZM-bl cells were plated into each transwell apical chamber of a 24-well plate (pore size 3μm and diameter 6,5 mm, Corning) containing medium in the bottom plate and cultured overnight. For efficacy testing, 60 TCID50 of virus was added to each apical well in the presence of 100 μL of compound 2 gel, tenofovir gel or blank gel at the final drug concentrations of 25μM, 10 μM and 5 μM. Inhibition of infection was determined as previously based on deviations from blank gel.

HIV-1 AD8 = experiment: Inhibition of antiviral activity by fetal bovine serum (TZM-bl, AD8); type: cell-based; conditions: FBS 0% to 10%
Protocol: To evaluate the binding of compounds to plasma proteins also in a cell based assay, the infection with the HIV laboratory strain AD8 was performed in absence or in presence of different concentrations of Fetal Bovine Serum (FBS): 2%, 5% and 10%. The representative compound 2 was pre-incubated at different concentrations ranging from 10 μM to 3.2 nM with 300 TCID50 /mL of AD8 in DMEM supplemented with 50 μg/mL penicillin, 50 μg/mL streptomycin, 30 μg/mL DEAE-dextran and FBS at the concentration described above. Maraviroc was used as control. After an hour the mixture was added to 40.000 TZM-bl cells/well plated in a 96-well plate and after two days the infection was quantified using a CPRG assay (Roche) as previously described.

Work on `O=C(O)c1ccc(-c2ccc(/C=C3\SC(=S)N(Cc4ccc(Cl)cc4)C3=O)o2)cc1O` [Compound 2] yielded an EC50 (HIV-1 NL 4.3 WT) of 13 ± 3 nM, an EC50 (HIV-1 AD8 WT) of 11 ± 1 nM and an EC50 (HSV-1; Human alphaherpesvirus 1, Vero) of 132 nM. The EC50 (HSV-1) was 131 ± 59.9 nM, the “recovery after 1 month of storage” value [1] was “about 100%” and the EC50 [2] was 9 ± 2 nM. For the same compound, the CC50 [3] was 810 ± 20 nM, the “SI (Selectivity Index)” value (human CD4+ T lymphocytes) was 62 and the EC50 (NL4.3 HIV strain) was 13 µM. The “effect of FBS concentration on antiviral activity” value (HIV-1 AD8) was “progressive loss of activity”.
